Results: article PMC7717710, “Synthesis, computational studies and assessment of in vitro inhibitory activity of umbelliferon-based compounds against tumour-associated carbonic anhydrase isoforms IX and XII” (Journal of Enzyme Inhibition and Medicinal Chemistry, 2020)
Where two headings read alike, the source gives them in different places.

Legend:
[1] = target: T1, hCA I (Homo sapiens, UniProt P00915); parameters: method as in PMID 29197732; details: reference compounds; read-out: Inhibition data (Ki) hCA I; cited from earlier work
T1 construct: made in house
T1 sequence (P00915 whole entry): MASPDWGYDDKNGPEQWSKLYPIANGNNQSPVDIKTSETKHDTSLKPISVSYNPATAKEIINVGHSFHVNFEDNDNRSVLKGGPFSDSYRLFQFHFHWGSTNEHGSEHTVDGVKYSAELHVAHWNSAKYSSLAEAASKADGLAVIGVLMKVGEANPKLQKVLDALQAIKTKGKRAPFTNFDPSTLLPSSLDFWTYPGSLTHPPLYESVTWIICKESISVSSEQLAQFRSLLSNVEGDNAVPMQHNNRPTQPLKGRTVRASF

[2] = target: T2, hCA II (Homo sapiens, UniProt P00918); parameters: method as in PMID 29197732; details: reference compounds; read-out: Inhibition data (Ki) hCA II; cited from earlier work
T2 construct: made in house

[3] = target: T1, hCA I; experiment: stopped-flow CO2 hydrase assay, hCA I; format: biochemical; details: recombinant hCA I; stopped-flow CO2 hydration; 15 min preincubation; errors ± 10%, 3 assays; read-out: Inhibition data (Ki) hCA I
Description: (§1) An applied photophysics stopped-flow instrument has been used for assaying the CA catalysed CO2 hydration activity. Phenol red (at a concentration of 0.2 mM) has been used as an indicator, working at the absorbance maximum of 557 nm, with 10–20 mM Hepes (pH 7.5) or Tris (pH 8.3) as buffers, and 20 mM Na2SO4 or 20 mM NaClO4 (for maintaining constant the ionic strength), following the initial rates of the CA-catalysed CO2 hydration reaction for a period of 10–100 s. The CO2 concentrations ranged from 1.7 to 17 mM for the determination of the kinetic parameters and inhibition constants. For each inhibitor, at least six traces of the initial 5-10% of the reaction have been used for determining the initial velocity. The uncatalyzed rates were determined in the same manner and subtracted from the total observed rates. Stock solutions of inhibitor (10 mM) were prepared in distilled-deionized water and dilutions up to 0.01 nM were done thereafter with distilled-deionized water. Inhibitor and enzyme solutions were preincubated together for 15 min at room temperature prior to assay to allow for the formation of the E–I complex. The inhibition constants were obtained by non-linear least-squares methods using PRISM 3, as reported earlier and represent the mean from at least three different determinations. CA isoforms were recombinant ones obtained as reported earlier by this group.
(§2) This small series of coumarin derivatives 7–11, 15–17 were subjected to the stopped-flow CO2 hydrase assays to evaluate the binding affinity against the tumour-associated hCA IX and XII over ubiquitous isoforms hCA I and II.

[4] = target: T2, hCA II; experiment: stopped-flow CO2 hydrase assay, hCA II; format: biochemical; details: recombinant hCA II; stopped-flow CO2 hydration; 15 min preincubation; errors ± 10%, 3 assays; read-out: Inhibition data (Ki) hCA II
Description: as §1, §2

[5] = target: T3, hCA IX (Homo sapiens, UniProt Q16790); experiment: stopped-flow CO2 hydrase assay, hCA IX; format: biochemical; details: recombinant hCA IX; stopped-flow CO2 hydration; 15 min preincubation; errors ± 10%, 3 assays; read-out: Inhibition data (Ki) hCA IX
T3 construct: made in house
Description: as §1, §2

[6] = target: T4, hCA XII (Homo sapiens, UniProt O43570); experiment: stopped-flow CO2 hydrase assay, hCA XII; format: biochemical; details: for Ki: recombinant hCA XII, stopped-flow CO2 hydration, 15 min preincubation, errors ± 10%, 3 assays, read-out: Inhibition data (Ki) hCA XII
T4 construct: made in house
T4 sequence (O43570 25-354): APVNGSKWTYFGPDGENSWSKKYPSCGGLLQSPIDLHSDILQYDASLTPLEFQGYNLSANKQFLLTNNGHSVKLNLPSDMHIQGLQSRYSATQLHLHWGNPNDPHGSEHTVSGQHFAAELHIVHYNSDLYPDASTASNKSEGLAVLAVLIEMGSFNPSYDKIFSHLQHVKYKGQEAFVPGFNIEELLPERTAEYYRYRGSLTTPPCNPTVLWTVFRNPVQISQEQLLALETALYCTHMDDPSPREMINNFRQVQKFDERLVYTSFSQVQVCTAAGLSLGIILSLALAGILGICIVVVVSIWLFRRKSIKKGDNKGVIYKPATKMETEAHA
Description: as §1, §2

O=c1cc(-c2ccccc2)c2ccc(O)cc2o1 [compound 3, 7-hydroxy-4-phenyl-2H-chromen-2-one]
Ki [1]: > 10000 nM | Ki [2]: > 10000 nM

Cc1c(O)ccc2c(-c3ccc(N)cc3)cc(=O)oc12 [compound 4, 4-(4-aminophenyl)-7-hydroxy-8-methyl-2H-chromen-2-one]
Ki [1]: > 10000 nM | Ki [2]: > 10000 nM

CC(=O)Oc1ccc2c(-c3ccccc3)cc(=O)oc2c1 [compound 7, 2-oxo-4-phenyl-2H-chromen-7-yl acetate]
Ki [3]: > 10000 nM | Ki [4]: > 10000 nM | Ki [5]: 56.2 nM | Ki [6]: 734 nM | melting point: 129 to 131 °C

CCC(=O)Oc1ccc2c(-c3ccccc3)cc(=O)oc2c1 [compound 8, 2-Oxo-4-phenyl-2H-chromen-7-yl propionate]
Ki [3]: > 10000 nM | Ki [4]: > 10000 nM | Ki [5]: 97.8 nM | Ki [6]: 523 nM | melting point: 172 to 174 °C

O=C(Oc1ccc2c(-c3ccccc3)cc(=O)oc2c1)c1ccccc1 [compound 9, 2-Oxo-4-phenyl-2H-chromen-7-yl benzoate]
Ki [3]: > 10000 nM | Ki [4]: > 10000 nM | Ki [5]: 21.8 nM | Ki [6]: 385 nM

CC(=O)c1c(O)ccc2c(-c3ccccc3)cc(=O)oc12 [compound 10, 8-Acetyl-7-hydroxy-4-phenyl-2H-chromen-2-one]
Ki [3]: > 10000 nM | Ki [4]: > 10000 nM | Ki [5]: 177 nM | Ki [6]: 24.9 nM

CCC(=O)c1c(O)ccc2c(-c3ccccc3)cc(=O)oc12 [compound 11, 7-Hydroxy-4-phenyl-8-propanoyl-2H-chromen-2-one]
Ki [3]: > 10000 nM | Ki [4]: > 10000 nM | Ki [5]: 3040 nM | fold less active/efficient towards hCA XII than parent compound 3 ([6]; ratio of Ki values versus compound 3): 10 fold | Ki [6]: 868 nM | melting point: 172 to 174 °C

O=c1cc(-c2ccccc2)c2ccc(O)c(Cl)c2o1 [compound 15, 8-Chloro-7-hydroxy-4-phenyl-2H-chromen-2-one]
Ki [3]: > 10000 nM | Ki [4]: > 10000 nM | Ki [5]: 261 nM | Ki [6]: 32 nM | melting point: 214 to 215 °C

O=c1cc(-c2ccc([N+](=O)[O-])cc2)c2ccc(O)c(Cl)c2o1 [compound 16, 8-Chloro-7-hydroxy-4-(4-nitrophenyl)-2H-chromen-2-one]
melting point: 303 to 305 °C

Nc1ccc(-c2cc(=O)oc3c(Cl)c(O)ccc23)cc1 [compound 17, 4-(4-aminophenyl)-8-chloro-7-hydroxy-2H-chromen-2-one]
Ki [3]: > 10000 nM | Ki [4]: > 10000 nM | Ki [5]: 180 nM | Ki [6]: 29.3 nM | melting point: 313 to 315 °C
